Data reported in publication PMC7018972, “Novel and selective inactivators of Triosephosphate isomerase with anti-trematode activity” (Scientific Reports, 2020).
Entries after “also recorded” stand apart in the source; their conditions may differ. Marks after values point to notes of the source that are not given here.

Experiments:
[1] = tested on: S. mansoni somules; assay: S. mansoni somules phenotypic screen in vitro; assay type: cell-based, Schistosoma mansoni; settings: for SOMULES SEVERITY SCORE: Table 2S, 10 uM
Excerpt: (§1) The NMRI isolate of S. mansoni was maintained by passage through Biomphalaria glabrata snails and 3–5 week-old, female Golden Syrian hamsters (Charles River, San Diego, CA) as intermediate and definite hosts, respectively. A dose of 600 infective larvae (cercariae) was used to infect hamsters. The acquisition, preparation and in vitro maintenance of S. mansoni post-infective larvae (schistosomula or somules) and adults have been already described[5],[50],[51]. Vertebrate animal maintenance and handling at the University of California San Diego Animal Care Facility were in accordance with protocols approved by the university’s Institutional Animal Care and Use Committee (IACUC).
Phenotypic screens with somules were performed as described[5],[50],[51]. Initially, 100 μL Basch medium, 100 U/ml penicillin, […] streptomycin, 4% heat-inactivated FBS (Corning Mediatech) and 1 μl compound in DMSO were added to clear, 96-well round-bottomed plates (Costar cat.# 3367). Then, 100 μL of the same medium containing 40–50 somules was added to mix the compound with somules (final concentration of DMSO was 0.5%). Assay plates were placed into plastic boxes humidified with wet tissue and then incubated at 37 °C in a 5% CO2 environment. Somules phenotypes were recorded every 24 h up to 72 h using an inverted microscope (Zeiss Axiovert 40 C).
(§2) Schistosome phenotypic responses were recorded employing a series of ‘descriptors,’ such as rounding, degeneration, overactivity, loss of translucency and changes in motility, as described previously[5],[50],[51],[53]. To allow for comparisons of compound activity, each descriptor was awarded a value of 1 and these were added up to a maximum ‘severity score’ of 4. Evidence of degeneracy or death was awarded the maximum score of 4. Scores were averaged across duplicate wells for each compound (see details in the supporting information).

[2] = tested on: S. mansoni adults; assay: S. mansoni adults phenotypic screen ex vivo; assay type: cell-based, Schistosoma mansoni; settings: for ADULTS SEVERITY SCORE: Table 2S, 5 uM
Excerpt: as §1
Phenotypic screens with 42-day-old, adult parasites were performed in 24-well plates (Costar cat.# 3526) containing the above medium and approximately five adult males and two females per well. Compound was added in a volume of up to 1 μL DMSO at a concentration of 5 µM (0.05% DMSO final). Assay plates were incubated at 37 °C in a 5% CO2 environment. Parasite phenotypes were recorded at 4, 8 and 24 h using a Zeiss Axiovert 40 C.
as §2

[3] = tested on: adult form of F. hepatica; assay: Ex-vivo assay in the adult form of F. hepatica; assay type: cell-based, Fasciola hepatica
Experimental: F. hepatica were collected from natural infections of cattle obtained from Casablanca slaughterhouse in Paysandú, Uruguay[49]. […] After flukes emptied their gut content (i.e. the gut was not dark anymore) they were transferred to 6 well plates (one fluke per well) with 2 mL of RPMI 1640 media with 200 U/mL Penicillin G sulfate, […] streptomycin sulfate, 500 ng/mL amphotericin B and 10 mM glucose at 37 °C. […] The antiparasitic efficacy was expressed as the percentage reduction of the number of flukes in the treated group compared with the control group.

[4] = Acute oral toxicity (up-and-down); assay type: in vivo; settings: mice
Experimental: Briefly, healthy young adult male BALB/c mice (30 days old, 25 to 30 g) were used in this study. […] The animal was fasted, maintained, and observed for 14 days according to the OECD guidelines. If the mouse survived for the first 48 h, another animal received the same dose. If this was repeated, a third animal was dosed with 2,000 mg/kg and also observed for 14 days. The experiment ends at 14 days post-administration, if there are no signs of toxicity, the (LD50) is the administered dose, if not, the software AOT AOT425 Stat program recommendation was followed. […] In parallel, sodium oleate was dissolved in phosphate buffer and left in an orbital shaker for 12 h at room temperature. The former was then added to the evaporated residue, and the mixture was homogenized and placed in an ultrasonic bath at full power for 30 min. The sample was kept at room temperature until use.

[5] = tested on: murine macrophages and human peripheral blood mononuclear cells; parameters: method as in PMID 22536349; settings: at 100 µM; cited from earlier work
[6] = tested on: thioredoxin glutathione reductase; parameters: method as in PMID 22536349; settings: cited from earlier work
[7] = tested on: NEJ; parameters: method as in PMID 22536349; settings: 48 h, fixed dose of 20 µM; cited from earlier work
[8] = tested on: Echinococcus granulosus protoscolex; parameters: method as in PMID 22536349; settings: 48 h, fixed dose of 20 µM; cited from earlier work

Cc1ccc(-c2nsc(S(=O)(=O)c3ccc(C)cc3)n2)cc1 [Compound 187]
S. mansoni somules severity score ([1]; Table 2, 24 h, score 0 to maximum 4): 4 (24 h)^## | SOMULES SEVERITY SCORE ([1]; 24 h): 4 | SOMULES SEVERITY SCORE ([1]; 48 h): 4 | SOMULES SEVERITY SCORE ([1]; 3d): 4 | effect on S. mansoni somules in words ([1]; in the first 24 h): lethal to somules | effect on S. mansoni adults in words ([2]; 24 h, 5 µM): decreased the motility of adults and the ability of their oral and ventral suckers to adhere; also recorded: decreased motility and loss of their ventral sucker adherence to the plate floor | ADULTS SEVERITY SCORE ([2]; 4 h): 0 | ADULTS SEVERITY SCORE ([2]; 8 h): 0 | ADULTS SEVERITY SCORE ([2]; 24 h): 2 | effect on adult F. hepatica in words ([3]; after 24 h, 10 µM): death of all the parasites | effect on adult F. hepatica in words ([3]; first 4 h at 10 µM): parasites were affected | acute oral toxicity in words [4]: low toxicity | LD50 ([4]; up-and-down, 14 days): ≥ 2000 mg/kg body weight | toxicity in words [5]: non-toxic | inhibition of thioredoxin glutathione reductase in words [6]: moderate inhibitor | effect on NEJ in words [7]: showed effect | effect on Echinococcus granulosus protoscolex in words [8]: showed effect
